Measurements taken from US5843941A, “Ras farnesyl transferase inhibitors” (Genentech, Inc., priority 1994, dated 1998).

Key:
[1] = system: nuclear lamins A and B in Met18b-2 cells; test: [3H]mevalonate labeling of farnesylated nuclear lamins in Met18b-2 cells; assay type: cell-based, Chinese hamster; details: 250 μM; FIG. 3
From the text: To study farnesylation in intact cells we used Met18b-2 cells, a line of Chinese hamster ovary (CHO) cells that takes up [3H]mevalonate efficiently (see Faust, J., and Krieger, M. J. Biol. Chem. 262, 1966 (1987)) owing to the production of a mevalonate transport protein (see Kim, C. M., Goldstein, J. L., Brown, M. S. J. Biol. Chem. 267, 23113 (1992)). The [3H]mevalonate is converted by the cells into [3H]farnesyl pyrophosphate and [3H]geranylgeranyl pyrophosphate, which are then attached to proteins (Kim, C. M., Goldstein, J. L., Brown, M. S. J. Biol. Chem. 267, 23113 (1992)). In the assay, stock cultures of Met18b-2 cells were seeded at a density of 3-105 cells per 60 mm dish in 3 ml of medium A (Dulbecco's modified Eagle medium/Ham's F12 medium (1:1, v/v) containing 100 U/ml penicillin and 100 μg/ml streptomycin) supplemented with 5% (v/v) fetal calf serum (FCS). On day 3, each monolayer was refed with 1 ml medium A supplemented with 1% FCS (dialyzed against 0.15 M NaCl). At this point the cells were treated with 100 μM compactin (see Brown, M. S., Faust, J. R., Goldstein, J. L., Kaneko, I., and Endo, A. J. Biol. Chem. 253, 1121 (1978)) which blocks the synthesis of unlabeled mevalonate within the cells. […] Protein concentrations were determined using the BCA protein assay reagent (Pierce) according to the manufacturer's instructions. […]

HCT-116 cells = test: Growth inhibition of human tumor line HCT-116; assay type: cell-based; details: HCT-116, colon, ras transformed, read-out: % growth inhib.
Experimental: (§1) To examine the effects of farnesyltransferase inhibition on cell growth, three cell lines (ras-transformed rat-1, src-transformed rat-1, and parental rat-1 cells) were seeded (see FIG. 7) at low density and allowed to grow for 10 days in the absence or presence of increasing concentrations of BZA-5B (compound 37). See Example 128 for description of cells. On day 0, cells were plated in monolayer culture at 2×10^3 cells per well (24-well plates) in 1 ml DMEM supplemented with 10% fetal calf serum, 100 U/ml penicillin, 100 μg/ml streptomycin, 0.5 mM DTT, 0.025% DMSO, and the indicated concentration of BZA-5B (compound 37). On days 3 and 7, cells were washed and refed with the same medium. At the time indicated in FIG. 7, cells were harvested by trypsinization and counted in a Coulter counter. Panels A, C, E show the growth rate of each cell line in the absence of inhibitor. Panels B, D, F show the inhibition of growth as a function of concentration of BZA-5B at each time point. […]
(§2) To examine the effects of farnesyltransferase inhibition on the growth of human tumor cell lines, several such lines were treated with 25 μM BZA-5B (compound 37B) using a procedure similar to that described in Example 129 above. Cells were refed with fresh media at days 3 and 6 containing the inhibitor, and were harvested and counted as described above. […]

HT-1080 cells = test: Growth inhibition of human tumor line HT-1080; assay type: cell-based; details: HT-1080, fibrosarcoma, ras transformed, read-out: % growth inhib.
Experimental: as §1, §2

Hela cells = test: Growth inhibition of human tumor line Hela; assay type: cell-based; details: cervix, not ras transformed, read-out: % growth inhib.
Experimental: as §1, §2

[2] = system: Ras proteins in Met18b-2 cells; test: Incorporation of [3H]mevalonate into immunoprecipitated Ras proteins in Met18b-2 cells; assay type: cell-based, Chinese hamster
Experimental: In each experiment, aliquots of the Triton X-100 fraction (300 μg protein, prepared as described above) were incubated with 1 μg anti-Ras monoclonal antibody (Oncogene Sciences, Inc.) overnight at 4° C. on a rotating platform. Immune complexes were precipitated by addition of 25 μl Protein A-agarose suspension that had been pre-coated with goat anti-rat IgG (Oncogene Sciences, Inc.) according to the manufacturer's instructions. After a 30 min incubation at 4° C., the agarose beads were pelleted by centrifugation and washed 5 times with 1 ml each of wash solution (50 mM Tris-HCl, 50 mM NaCl, 0.5% (w/v) deoxycholate, 0.5% (v/v) Nonidet P-40, and 0.1% (w/v) SDS at pH 7.5). 75 μl of 1X SDS sample buffer was added and each sample heated for 5 min at 95° C. before electrophoresis as above.

CALU-3 cells = test: Growth inhibition of human tumor line CALU-3; assay type: cell-based; details: CALU-3, lung, ras transformed, read-out: % growth inhib.
Experimental: as §1, §2

MCF-231 cells = test: Growth inhibition of human tumor line MCF-231; assay type: cell-based; details: MCF-231, breast (human), ras transformed, read-out: % growth inhib.
Experimental: as §1, §2

Compound	labeling of farnesylated lamins (F-NL) [1]	inhibition at 25 µM (HCT-116 cells) [%]	inhibition at 25 µM (HT-1080 cells) [%]	inhibition at 25 µM (Hela cells) [%]	incorporation of [3H]mevalonate into immunoprecipitated ras proteins ([2]; 50 μM, FIG. 5, lanes 7-9)	minimal effective concentration ([2]; Cricetulus griseus, FIG. 5, read-out: concentration at which inhibition of incorporation into ras proteins was readily detectable) [µM]	inhibition at 25 µM (CALU-3 cells) [%]	inhibition at 25 µM (MCF-231 cells) [%]
CSCC[C@H](NC(=O)CN1C(=O)C(N(C)C(=O)[C@@H](N)CS)N=C(c2ccccc2)c2ccccc21)C(=O)O (single isomer, unassigned) [27B]	reduced moderately the labeling of the farnesylated lamins							
COC(=O)[C@H](CCSC)NC(=O)CN1C(=O)C(N(C)C(=O)[C@@H](N)CS)N=C(c2ccccc2)c2ccccc21 (single isomer, unassigned) [37B]		0	64	0	abolished incorporation of [3H] mevalonate into immunoprecipitated ras proteins	10	52	58
